From ChEMBL document CHEMBL1130993, “1,2-disubstituted cyclohexane derived tripeptide aldehydes as novel selective thrombin inhibitors” (Bioorg Med Chem Lett, 1998)

Legend:
[1] = Compound was evaluated for IC50 ratio between human plasmin and thrombin
[2] = target: T1, Prothrombin (Homo sapiens, UniProt P00734); test: Compound was evaluated for the inhibition of thrombin using the synthetic substrate chromozym TH
[3] = Compound was evaluated for IC50 ratio between human t-PA and thrombin
[4] = target: T1, Prothrombin; test: Compound was evaluated for percent inhibition of thrombin using the synthetic substrate chromozym TH at 100 uM

| Selectivity [1] | IC50 [2] | Selectivity [3] | inhibition [4] | Compound |
| --- | --- | --- | --- | --- |
| 38 | 4 µM | 1000 | 100% | CNC(Cc1ccccc1)C(=O)N[C@@H]1CCCC[C@H]1C(=O)N[C@@H](C=O)CCCN=C(N)N (stereo partly drawn) |
|  |  |  | 27% | CN(Cc1ccccc1)C(=O)[C@H]1CCCC[C@@H]1C(=O)N[C@@H](C=O)CCCN=C(N)N |
|  | 84 µM |  | 100% | CN(CCc1ccccc1)C(=O)C1CCCCC1C(=O)N[C@@H](C=O)CCCN=C(N)N (stereo partly drawn) |
|  |  |  | 1% | CNC(Cc1ccccc1)C(=O)N[C@@H]1CCCC[C@@H]1C(=O)N[C@@H](C=O)CCCN=C(N)N (stereo partly drawn) |
|  | 0.046 µM |  |  | CN[C@H](Cc1ccccc1)C(=O)N1CCC[C@H]1C(=O)N[C@H](C=O)CCCN=C(N)N [EFEGATRAN] |
|  |  |  | 8% | CN(Cc1ccccc1)C(=O)[C@@H]1CCCC[C@H]1C(=O)N[C@@H](C=O)CCCN=C(N)N |
|  |  |  | 39% | CNC(Cc1ccccc1)C(=O)N[C@H]1CCCC[C@@H]1C(=O)N[C@@H](C=O)CCCN=C(N)N (stereo partly drawn) |
|  |  |  | 14% | CN(CCc1ccccc1)C(=O)[C@@H]1CCCC[C@H]1C(=O)N[C@@H](C=O)CCCN=C(N)N |
| 67 | 12 µM | 308 | 100% | CN(CCc1ccccc1)C(=O)[C@@H]1CCCC[C@@H]1C(=O)N[C@@H](C=O)CCCN=C(N)N |
|  |  |  | 15% | CN(CCc1ccccc1)C(=O)[C@H]1CCCC[C@@H]1C(=O)N[C@@H](C=O)CCCN=C(N)N |
|  |  |  | 36% | CN(Cc1ccccc1)C(=O)C1CCCCC1C(=O)N[C@@H](C=O)CCCN=C(N)N (stereo partly drawn) |
|  |  |  | 6% | CNC(Cc1ccccc1)C(=O)N[C@H]1CCCC[C@H]1C(=O)N[C@@H](C=O)CCCN=C(N)N (stereo partly drawn) |
| 413 |  |  |  | CN[C@H](Cc1ccccc1)C(=O)N1CCC[C@H]1C(=O)N[C@H](C=O)CCCNC(=N)N |

| Compound | Selectivity [1] | IC50 [2] | Selectivity [3] | inhibition [4] |
| --- | --- | --- | --- | --- |
| CNC(Cc1ccc2ccccc2c1)C(=O)N[C@H]1CCCC[C@H]1C(=O)N[C@@H](C=O)CCCN=C(N)N (stereo partly drawn) | 4540 | 0.022 µM | > 5000 |  |
